Experimental data taken from PubChem BioAssay AID2102 (Southern Research Specialized Biocontainment Screening …, 2009).

System: Host cell viability cytotoxicity counter-screen, SV40 T antigen hits
Test: host cell cytotoxicity, dose response, cytotoxicity control for SV40 T antigen inhibitor project, selected hits (AID 2102);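 note: cells exposed to compounds for 72 hours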

Row | Compound | CC50 [µM]
1 | COc1ccc(-n2c(=O)c3c4c(sc3n3c(=S)[nH]nc23)COC(C(C)C)C4)cc1 (centres undefined) | 40.1
2 | Cc1cc2c(N=O)c(NO)ccc2[nH]1 | 22.1
3 | COc1ccc(N2CCC(CNC(=S)Nc3c(C)cccc3C)C2)cc1 (centres undefined) | 45.8
4 | CCS(=O)(=O)c1ncc(Cl)c(C(=O)Nc2ccc(S(=O)(=O)N3CCC(C)CC3)cc2)n1 | 48.6
5 | O=C1C(SCCO)=C(SCCO)C(=O)c2ccccc21 | 28.2
6 | O=S(=O)(c1ccc(NC(=S)N2CCN(c3ccc(O)cc3)CC2)cc1)N1CCOCC1 | 33
7 | Cc1ccc(S(=O)(=O)N2CCCOC2CNC(=O)C(=O)NCCc2c[nH]c3ccccc23)cc1 (centres undefined) | 27.7
8 | COCCN=C1Sc2nc3c(C)cccc3cc2CN1Cc1ccco1 | 23
9 | COc1cc(Cl)ccc1NC(=O)COc1ccccc1C(=O)N1CCN(c2ccc(O)cc2)CC1 | 33.7
10 | Cc1ccc(C2(C)NC(=O)N(CC(=O)Nc3nc(-c4ccccn4)cs3)C2=O)cc1 (centres undefined) | 11.3
11 | COc1ccc(N2CCC(CNC(=S)Nc3c(C)cc(C)cc3C)C2)cc1 (centres undefined) | 15.9
12 | COC1=C(Nc2ccc(O)cc2)C(=O)c2ccccc2C1=O | 16.5
13 | Oc1ccc(/C=N/Nc2ccc(C(F)(F)F)cn2)cc1O | 34.6
14 | CCOC(=O)c1c(N2C(=O)Nc3cc(Cl)c(Cl)cc3N2O)sc2c1CCCCC2 | 15.6
15 | COc1cc(/C=C/C(=O)c2ccc([N+](=O)[O-])o2)ccc1O | 44.1
16 | O=C(/C=C/c1ccc(O)c(O)c1)c1ccccc1O | 26.3
17 | Cc1ccc(-n2sc3ccccc3c2=O)cc1S(=O)(=O)N1CCCCC1 | 14.7
18 | CN(C)c1ccc(NS(=O)(=O)c2cccc(Cl)c2)cc1 | 47.2
19 | Cc1c(Br)c(=O)oc2c(Br)c(O)c(O)cc12 | 49.2
20 | Cc1ccccc1/C=C/C(=O)c1ccc([N+](=O)[O-])o1 | 23.6
21 | CCN(CC)c1ccc(NC(=O)CCNS(=O)(=O)c2ccc3c(c2)CCC(=O)N3)c(C)c1 | 42.2
22 | Cc1nc2ncccn2c1-c1csc(Nc2ccc(N(C)C)cc2)n1 | 27.5
23 | Oc1ccc(N2CCN(C(=S)NCCc3ccccc3)CC2)cc1 | 45
24 | CCCCC(CC)CN=C(N)NC(N)=NCCCCCCN=C(N)NC(N)=NCC(CC)CCCC (centres undefined) | 3.49

Row | Compound | CC50 [µM]
25 | COc1cc(-c2cc(=O)c3ccccc3o2)ccc1O | 35.7
26 | CC(/C=C1\SC(=S)N(CCCC(=O)Nc2ccc(C(=O)O)c(O)c2)C1=O)=C\c1ccccc1 | 38.4
27 | CCOc1ccc(NCc2cccn2-c2nnc(N3CCC(C(=O)NCCCN4CCCCC4CC)CC3)s2)cc1 (centres undefined) | 49.8
28 | COc1cc(OC)c(-c2c3cc(O)c(=O)cc-3oc3cc(O)c(O)cc23)cc1OC | 47.7
29 | Cc1c(C)n(Cc2ccccc2)c2ncnc(NN)c12 | 6.12
30 | CCOc1c(Br)cc(CNc2ccc(N3CCN(C(C)=O)CC3)cc2)cc1OC | 14.2
31 | Oc1cc2c(c(Cl)c1O)CCNCC2c1ccccc1 (centres undefined) | 41
32 | Clc1ccccc1CSc1nnc(-c2ccco2)c(-c2ccco2)n1 | 24.6
33 | O=c1oc2cc(O)ccc2s1 | 31.2
34 | COc1ccc(N2CCC(CNC(=S)Nc3ccc(C)cc3C)C2)cc1 (centres undefined) | 15
35 | Oc1ccc(-c2[nH]ncc2-c2cccc3cccnc23)c(O)c1 | 17.3
36 | Cc1ccc(-c2ccc(/C=C3\C(=O)ON=C3c3ccccc3)o2)c([N+](=O)[O-])c1 | 37.5
37 | CCOc1cc(N2CCOCC2)c(OCC)cc1NS(=O)(=O)c1ccc(Cl)s1 | 40
38 | O=C(NC1CCCC1)c1sc(=S)n2c1[nH]c(=O)c1ccccc12 | 15.9
39 | O=C(c1ccccc1)N1CCN(c2ccc(NCc3ccc4c(c3)OCO4)cc2)CC1 | 17.3
40 | Cc1cc(C(=O)c2cccs2)c(N)s1 | 35.8
41 | CC1=C(C(=O)OCC(C)C)C(c2cccs2)NC(=S)N1 (centres undefined) | 21
42 | CC(=O)N(c1ccc2oc(=O)sc2c1)S(=O)(=O)c1ccccc1 | 36.8
43 | O=c1cc2oc3cc(O)c(O)cc3c(-c3ccccc3[N+](=O)[O-])c-2cc1O | 24.1
44 | C=CCn1c(=S)[nH]c2scc(-c3ccco3)c2c1=O | 32.5
45 | CN(C)S(=O)(=O)c1cccc(-n2sc3ccccc3c2=O)c1 | 30.4
46 | CCOc1c(Br)cc(CNc2ccc(N3CCOCC3)cc2)cc1OC | 13.8
47 | CCN(CC)c1ccc(NC(=O)C2CC(=O)N(Cc3ccccc3)C2)cc1 (centres undefined) | 42.7
48 | CC(C)c1ccc(S(=O)(=O)N2CCN(CC(=O)c3ccc(O)c(O)c3)CC2)cc1 | 31.3

Row | Compound | CC50 [µM]
49 | O=C(O)c1ccc(-n2cccc2/C=C2/NC(=O)N(c3ccccc3)C2=O)cc1 | 15.6
50 | CNc1nc(-c2ccccc2)[n+](-c2ccc(C)cc2)s1 | 36.2
51 | CN1\C(=C/C=C/C=C/C=[N+](C)C)C(C)(C)c2ccccc21 | 21.7
52 | O=C1NC(=S)S/C1=C\c1ccc(SCc2ccco2)o1 | 15.2
53 | Oc1ccc(CCNc2c3ccccc3nc3ccccc23)cc1O | 39.3
54 | CCOC(=O)c1[nH]nc(-c2cc(CC)c(O)cc2O)c1-c1cscn1 | 33.7
55 | CCN(CC)c1ccc(/C=N/N2CCOCC2)cc1 | 49.4
56 | Cc1ccc(/C=N/n2c(-c3ccco3)n[nH]c2=S)cc1 | 24.7
57 | Cc1ccc(OCCC(=O)N2CCN(c3ccc(O)cc3)CC2)cc1 | 20.7
58 | Oc1ccc(Nc2nc(N3CCCC3)c3ccccc3n2)cc1 | 30.7
59 | CCCCCCCCCCCCCCCC[N+](C)(C)CCN(Cc1ccc(OC)cc1)c1ncccn1 | 7.39
60 | O=C(N/N=C/c1cc(Br)c(O)c(Br)c1)c1cc2c(ccc3ccccc32)o1 | 32.3
61 | COc1cc(CNc2ccc(N3CCCCC3)cc2)ccc1OCC(=O)NC(C)(C)C | 24.5
62 | O=C(CCSc1ccc(Cl)cc1)N1CCN(c2ccc(O)cc2)CC1 | 14.6
63 | CCS(=O)(=O)c1ncc(Cl)c(C(=O)Nc2ccc(S(=O)(=O)N3CCCC(C)C3)cc2)n1 (centres undefined) | 31.2
64 | O=[N+]([O-])c1ccc(-[n+]2ccc3ccccc3c2)c([N+](=O)[O-])c1 | 29
65 | O=C(CCOc1ccccc1)N1CCN(c2ccc(O)cc2)CC1 | 31.5
66 | O=C(NN1C(=O)/C(=C/C=C/c2ccco2)SC1=S)c1ccccc1O | 40.6
67 | O=c1cc(-c2ccc(O)c(O)c2)oc2cc(O)cc(O)c12 | 47.9
68 | C=CCn1c(SCC(C)=O)nc2scc(-c3ccco3)c2c1=O | 48.4
69 | CCCC[n+]1c2ccccc2cc2ccccc21 | 23.9
70 | O=C1NC(=Nc2ccc(O)cc2)S/C1=C\C=C\c1ccco1 | 30.2
71 | Cc1ccc(S(=O)(=O)N2[C@@H](c3ccc(Cl)cc3)C(C(=O)O)=CC[C@H]2c2ccc(Cl)cc2)cc1 | 30.7
72 | CCN(CC)c1ccc(/C=C2\C(=O)N(c3nnc(C)c(=O)[nH]3)N=C2C)cc1 | 46.4

Row | Compound | CC50 [µM]
73 | C=C1C(=O)O[C@H]2[C@H]1[C@H](OC(=O)CC(=O)O[C@@H]1C[C@@H](C)[C@@H]3C=CC(=O)[C@@]3(C)[C@H]3OC(=O)C(=C)[C@H]13)C[C@@H](C)[C@H]1C=CC(=O)[C@]12C | 3.95
74 | Cc1ccc(/C=C2/SC(=O)NC2=S)o1 | 48.1
75 | Cc1ccccc1-n1sc2cc(F)ccc2c1=O | 14.6
76 | COc1cccc(-n2c(SCc3cc(=O)oc4cc(O)c(O)cc34)nc3ccccc3c2=O)c1 | 18.2
77 | CC(=O)N(c1ccc2oc(=O)sc2c1)S(=O)(=O)c1cccs1 | 33.8
78 | CCCCNC(=O)c1sc(=S)n2c1[nH]c(=O)c1ccccc12 | 31.8
79 | CCC[n+]1c2ccccc2cc2ccccc21 | 23.8
80 | COc1ccc(NC2CCCN(Cc3cccc4cnccc34)C2)cc1OC (centres undefined) | 35.9
81 | Nc1cnc(Nc2ccc(Br)cc2)nc1N | 42.2
82 | CC(=O)Nc1sc(N/N=C\c2ccco2)nc1-c1cccs1 | 49.8
83 | O=C(CCl)Nc1ccc(N2CCCCCC2)cc1 | 47.1
84 | N#Cc1ccccc1CN1C(=O)S/C(=C/c2cccn2-c2cccc(C(=O)O)c2)C1=O | 16.9
85 | O=C1NC(=S)S/C1=C\c1ccc(SCc2ccccc2)o1 | 30
86 | COc1cccc(CNc2ccc3[nH]c(=O)[nH]c3c2)c1OCc1ccccc1 | 37
87 | CCCc1nc2ccccc2c(=O)n1/N=C/c1ccc(O)c(O)c1 | 48.4
88 | COc1cc(CNc2ccc(N3CCOCC3)cc2)ccc1OCC(=O)NC(C)(C)C | 30.8
89 | Cc1ccc2nc(-c3ccccn3)c(NC3CCCC3)n2c1 | 15.1
90 | COc1cnc(-c2ccccn2)nc1Oc1ccc(Cl)c2ccccc12 | 13.7
91 | CCCc1cc(-c2n[nH]c(C(=O)OCC)c2-c2cscn2)c(O)cc1O | 11.1
92 | O=c1c2ccccc2nc(COc2ccccc2)n1/N=C/c1ccc(O)c(O)c1 | 33.8
93 | CC1=NOC(=O)/C1=C\c1ccc(-c2ccccc2Br)o1 | 24.7
94 | CCOc1ccc(NCc2cccn2-c2nnc(N3CCC(C(=O)NCCCN4CC(C)CC(C)C4)CC3)s2)cc1 (centres undefined) | 36.9
